Measurements reported in patent US10941379B2, “Microbial system for biosynthesis of natural and engineered products coupled to in situ extraction in supercritical CO2” (Massachusetts Institute of Technology, priority 2016, dated 2021).
Peptide text beside a SMILES is read from it.

Test system: B. megaterium SR7
Assay: Biolog GenIII sole carbon source growth
Assay type: cell-based, Bacillus megaterium
Conditions: for Growth in carbon source Biolog plate, +Metals: trace metals-amended plate; for Growth in carbon source Biolog plate, +Metals / Growth in carbon source Biolog plate, I / Growth in carbon source Biolog plate, II: Table 11; for Growth in carbon source Biolog plate, I: unamended plate trial I; for Growth in carbon source Biolog plate, II: unamended plate trial II
Protocol: Plates were incubated at 37° C. on a plate shaker at 200 rpm and assayed for growth using NADH-dependent colorimetric changes measured by OD490 on a microplate reader (BioTek Synergy 2; BioTek; Winooski, Vt.).

Compound | Growth in carbon source Biolog plate, +Metals | Growth in carbon source Biolog plate, I | Growth in carbon source Biolog plate, II | Growth on Biolog sole carbon source, SR7 (no metals added, Table 10)
CC(=O)CC(=O)O [Acetoacetic Acid] | − | − | + | 
O=C(O)CC(O)(CC(=O)O)C(=O)O [Citric Acid] | +++ | +++ |  | 
OC[C@@H](O)C(O)[C@H](O)CO [D-Arabitol] | + | + | + | 
N[C@H](CC(=O)O)C(=O)O [D-Aspartic Acid] | − | − | − | 
OC[C@H]1O[C@@H](O[C@H]2[C@H](O)[C@@H](O)[C@H](O)O[C@@H]2CO)[C@H](O)[C@@H](O)[C@@H]1O [D-Cellobiose] | + | + | + | 
O=P(O)(O)OC[C@H]1OC(O)(CO)[C@@H](O)[C@@H]1O (stereo partly drawn) [D-Fructose-6-PO4] | − | + | − | 
O=C(CO)[C@@H](O)[C@H](O)[C@H](O)CO [D-Fructose] | + | + | + | 
C[C@@H](O)[C@H](O)[C@H](O)[C@@H](O)C=O [D-Fucose] | − | − | − | 
O=C[C@H](O)[C@@H](O)[C@@H](O)[C@H](O)CO [D-Galactose] | + | + | + | 
O=C[C@H](O)[C@@H](O)[C@@H](O)[C@H](O)C(=O)O [D-Galacturonic Acid] | − | − | + | 
O=P(O)(O)OC[C@H]1OC(O)[C@H](O)[C@@H](O)[C@@H]1O (stereo partly drawn) [D-Glucose-6-PO4] | − | − | − | 
O=C[C@H](O)[C@@H](O)[C@H](O)[C@H](O)C(=O)O [D-Glucuronic Acid] | − | + | + | 
COC(=O)[C@@H](C)O [D-Lactic Acid Methyl Ester] | + | + | + | 
O=C(O)C[C@@H](O)C(=O)O [D-Malic Acid] | − | − | − | 
OC[C@H]1O[C@H](O[C@H]2[C@H](O)[C@@H](O)[C@H](O)O[C@@H]2CO)[C@H](O)[C@@H](O)[C@@H]1O [D-Maltose] | + | − | + | −
O=C[C@@H](O)[C@@H](O)[C@H](O)[C@H](O)CO [D-Mannose] | − | − | − | 
OC[C@H]1O[C@H](OCC2O[C@@H](O)[C@H](O)[C@@H](O)[C@@H]2O)[C@H](O)[C@@H](O)[C@H]1O (stereo partly drawn) [D-Melibiose] | + | + | + | 
OC[C@H]1O[C@H](OC[C@H]2O[C@H](O[C@]3(CO)O[C@H](CO)[C@@H](O)[C@@H]3O)[C@H](O)[C@@H](O)[C@@H]2O)[C@H](O)[C@@H](O)[C@H]1O [D-Raffinose] | +++ | − | + | 
OC[C@@H](O)[C@@H](O)[C@H](O)[C@@H](O)CO [D-Sorbitol] | + | + | − | 
OC[C@H]1O[C@H](O[C@H]2O[C@H](CO)[C@@H](O)[C@H](O)[C@H]2O)[C@H](O)[C@@H](O)[C@@H]1O [D-Trehalose] | + | − | + | 
O=CO [Formic Acid] | − | + | − | 
NC(=O)[C@@H](O)[C@@H](O)[C@H](O)[C@@H](O)C=O [Glucuronamide] | − | − | − | 
OCC(O)CO [Glycerol] | + | + | + | 
NCC(=O)N1CCC[C@H]1C(=O)O [Glycyl-L-Proline] (H-Gly-Pro-OH) | − | − | − | 

Compound | Growth in carbon source Biolog plate, +Metals | Growth in carbon source Biolog plate, I | Growth in carbon source Biolog plate, II | Growth on Biolog sole carbon source, SR7 (no metals added, Table 10)
OC[C@H]1O[C@@H](n2cnc3c(O)ncnc32)[C@H](O)[C@@H]1O [Inosine] | + | − | + | 
N=C(N)NCCC[C@H](N)C(=O)O [L-Arginine] | +++ | + | + | 
C[C@H](O)[C@@H](O)[C@@H](O)[C@H](O)C=O [L-Fucose] | − | − | − | 
O=C1O[C@H]([C@@H](O)CO)[C@@H](O)[C@@H]1O [L-Galactonic Acid Lactone] | − | − | + | 
O=C1CC[C@@H](C(=O)O)N1 [L-Pyroglutamic Acid] | +++ | + | + | 
C[C@H](O)[C@H](O)[C@@H](O)[C@@H](O)C=O [L-Rhamnose] | − | − | − | 
N[C@@H](CO)C(=O)O [L-Serine] | − | + | + | 
COC(=O)C(C)=O [Methyl Pyruvate] | + | + | + | 
O=C(O)[C@@H](O)[C@H](O)[C@H](O)[C@@H](O)C(=O)O [Mucic Acid] | − | − | + | 
CC(=O)N[C@H]1[C@H]([C@H](O)[C@H](O)CO)OC(O)(C(=O)O)C[C@@H]1O (stereo partly drawn) [N-Acetyl Neuraminic Acid] | − | − | − | 
CC(=O)N[C@H]1C(O)O[C@H](CO)[C@H](O)[C@@H]1O (stereo partly drawn) [N-Acetyl-D-Galactosamine] | − | + | − | 
CC(=O)N[C@H]1[C@@H](O)[C@H](O)[C@@H](CO)O[C@H]1O [N-Acetyl-β-D-Mannosamine] | − | − | − | 
CCC(=O)O [Propionic Acid] | − | − | + | 
O=C(O)[C@]1(O)C[C@@H](O)[C@@H](O)[C@H](O)C1 [Quinic Acid] | − | − | + | 
OC[C@H]1O[C@H](OC[C@H]2O[C@H](OC[C@H]3O[C@H](O[C@]4(CO)O[C@H](CO)[C@@H](O)[C@@H]4O)[C@H](O)[C@@H](O)[C@@H]3O)[C@H](O)[C@@H](O)[C@H]2O)[C@H](O)[C@@H](O)[C@H]1O [Stachyose] | + | + | + | 
O[C@H]1[C@H](O)[C@@H](O)[C@H](O)[C@@H](O)[C@H]1O [myo-Inositol] | +++ | − | + | 
O=C(O)Cc1ccc(O)cc1 [p-Hydroxy-Phenylacetic Acid] | − | − | − | 
NCCCC(=O)O [Υ-Amino-Butryric Acid] | +++ | − | + | 
OC[C@H]1O[C@@H](O[C@H]2[C@H](O)[C@@H](O)[C@@H](O)O[C@@H]2CO)[C@H](O)[C@@H](O)[C@H]1O [α-D-Lactose] | + | + | + | 
CCC(O)C(=O)O (stereo not drawn) [α-Hydroxy-Butyric Acid] | − | − | − | 
CCC(=O)C(=O)O [α-Keto-Butyric Acid] | − | − | − | 
CO[C@@H]1O[C@H](CO)[C@@H](O)[C@H](O)[C@H]1O [β-Methyl-D-Glucoside] | + | − | + | 
D-Salicin | + | + | + | 
D-Turanose | +++ | + | + | 
